Reference: publication PMC11488100, “PET imaging of CXCR4 expression using [^18F]AlF-NOTA-QHY-04 for hematologic malignancy and solid tumors” (Theranostics, 2024)
Bridge positions count the residues as written; N and C are the ends. Square brackets hold non-standard residues; d marks the D form. Peptide text beside a SMILES is read from it. * marks the point of attachment. NOTA = O=C(O)CN1CCN(CC(=O)O)CCN(CC(=O)*)CC1; 2Nal = N[C@@H](Cc1ccc2ccccc2c1)C(=O)O; Pen = CC(C)(S)[C@H](N)C(=O)O; 4Amb = NCc1ccc(C(=O)O)cc1; Ahx = NCCCCCC(=O)O

Experiments:
[1] = molecular target: T1, recombinant CXCR4 protein (Homo sapiens, UniProt P61073); assay: Biolayer interferometry (BLI) binding assay; conditions: BLI Octet Red96, biotinylated CXCR4 on SSA biosensors, 30 °C, HBS-P buffer pH 7.4, 0.0313-1 μM, 1:1 binding model, global fit
T1 construct: purchased Novoprotein C16M
Protocol: The in vitro and in vivo stability of [^18F]AlF-NOTA-QHY-04 were evaluated by radio-HPLC to examine the RCP after different incubation periods. The binding affinity of the unlabeled precursor to CXCR4 was measured using the biolayer interferometry Octet Red96 system (PALL ForteBio, USA). The details are supplied in the supplemental materials. […]
human serum albumin solution were evaluated by radio-HPLC to examine the radiochemical purity after different incubation periods. For the saline study, 200 μL of [18F]AlF-NOTA-QHY-04 (0.74–3.70 MBq) was incubated at 37°C with 800 μL of saline for 1 h, 3 h and 6 h respectively, and then directly evaluated by radio -HPLC. […] Finally, the supernatant was collected and passed through a 0.22 μm membrane filter (Millipore, USA) and analyzed by radio-HPLC. […]
The processed blood supernatants and diluted urine samples were collected and passed through a 0.22 μm membrane filter (Millipore, USA) and analyzed by radio-HPLC. […]
and 1 μM NOTA-QHY-04 sample) was prepared and flowed. […] Prior to fitting, the data were baseline-subtracted and analyzed using a 1:1 binding model and the ForteBio data analysis software. Mean Kd value was determined by applying a global fit to all the data. […]

[2] = [18F]FDG PET/CT imaging in cancer patients; format: in vivo, human
From the text: Potential eligible patients with newly diagnosed tumor were recruited from Shandong Cancer Hospital and institute from November 2022 to December 2023. A total of 55 patients including 8 tumor types were represented in this study (diffuse large B-cell lymphoma (DLBCL), n = 6; SCLC, n = 30; non-small cell lung cancer (NSCLC), n = 4; triple-negative breast cancer (TNBC), n = 3; pancreatic carcinoma, n = 3; glioma, n = 7; hepatocellular carcinoma (HCC), n = 1; and colorectal carcinoma (CRC), n = 1). The [^18F]AlF-NOTA-QHY-04 imaging study in patients was approved by the Institutional Review Board of Shandong Cancer Hospital and Institute (no. SDZLEC2023-256-02), and the patients provided their informed consent before inclusion in this study. In this prospective observational study, [^18F]AlF-NOTA-QHY-04 PET/CT scans should not affect the normal process of routine examinations and treatment as usual. Patients were enrolled according to the following criteria: (1) newly diagnosed cancer patients with visible tumors on conventional imaging; (2) histopathologically confirmed diagnosis; (3) age ≥ 18 years; (4) Eastern Cooperative Oncology Group (ECOG) performance status score of 0-2; (5) no prior cancer-directed therapy; (6) ability to undergo [^18F]AlF-NOTA-QHY-04 PET/CT scanning before treatment initiation. Specifically, regarding histological confirmation, we followed the standard clinical practice guidelines for each type of cancer [21]-[26], and provided detailed descriptions of our approach for obtaining histological evidence in the supplemental materials. All patients included in this study were treatment-naïve at the time of [^18F]AlF-NOTA-QHY-04 PET/CT imaging, to ensure that CXCR4 expression levels were not altered by treatments. PET/CT scans were performed within one week of pathological confirmation and carefully coordinated with the patient's clinical teams to avoid any delays in the initiation of treatment. Seven patients from them also underwent [^18F]FDG PET/CT scan. These patients fasted for at least 6 hours before [^18F]FDG PET/CT imaging. The methods for PET/CT scanning and image analysis were the same as previously reported, and detailed in the supplemental materials.
pathologists following standard diagnostic criteria, including routine H&E staining and
relevant immunohistochemical analyses. Histological confirmation was completed before
patients underwent [18F]AlF-NOTA-QHY-04 PET/CT imaging to ensure an accurate
correlation between imaging findings and tumor characteristics.
All the PET/CT scans in patients were acquired through an integrated in -line PET/CT
system (GEMINI TF Big Bore, Philips Healthcare, USA) at 60 min after intravenous
administration of 4.81 MBq/kg [18F]AlF-NOTA-QHY-04 or [18F]FDG. The
medical information system (Beijing Mozi Healthcare Technology Co., Ltd., Beijing,
China). ROIs were drawn on the transaxial images , and the maximum, mean, and peak
standard uptake value (SUV max, SUVmean, SUVpeak) were calculated automatically and used
for measuring the uptake of [18F]AlF-NOTA-QHY-04 by malignant tissues. In PET imaging
of brain tumors, T/N (tumor-to-normal brain ratio) was calculated according to the ratio of
SUVmax of tumor to SUVmean of the contralateral normal brain tissue. Two experienced
nuclear medicine physicians unaware of the patients’ clinical history analyzed the PET/CT
data first independently and then in consensus . […]
For mIF staining, the FFPE sections were baked for 2 h at 60 °C and then
deparaffinized with xylene and rehydrated through decreasing gradient ethanol. Antigen
retrieval was performed in AR6 buffer (Akoya Biosciences) in a microwave oven for 15

[3] = 10 lesions of DLBCL patient No. 32

T1 sequence (P61073 1-39 limits assumed): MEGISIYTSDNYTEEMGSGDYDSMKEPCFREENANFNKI

Row | Kd [1] [nM] | SUVmax [2, 3] | SUVmean [2, 3] | average T/N (tumor-to-normal brain ratio) ([2]; SUVmax of tumor / SUVmean of contralateral normal brain, three PCNS DLBCL and one low-grade glioma patient) | SUVmax ([2]; bone metastasis of NSCLC patient No. 35) | SUVmax ([2]; inguinal lymph node of DLBCL patient No. 32) | SUVmax ([2]; lymph node metastasis of NSCLC patient No. 35) | SUVmax ([2]; primary lesion of NSCLC patient No. 35) | average SUVmax ([2]; three PCNS DLBCL patients and one low-grade glioma patient imaged with both tracers) | SMILES
1 | 55.2 ± 11.3 |  |  |  |  |  |  |  |  | C[C@H](NC(=O)[C@H](CCCNC(=N)N)NC(=O)CCCCCNC(=O)c1ccc(CNC(=O)CN2CCN(CC(=O)O)CCN(CC(=O)O)CC2)cc1)C(=O)N[C@@H]1CSSC(C)(C)[C@@H](C(=O)O)NC(=O)[C@H](Cc2c[nH]cn2)NC(=O)[C@H](Cc2ccc3ccccc3c2)NC(=O)[C@H](CCCNC(=N)N)NC1=O [NOTA-QHY-04] ({NOTA-4Amb-Ahx}-RA[dC]R[2Nal]H[Pen]-OH; disulfide 3-7)
2 |  | 8.00 ± 4.57 | 4.39 ± 2.36 | 1.70 ± 0.25 | 4.1 | 2.17 | 4.26 | 5.23 | 12.12 ± 2.03 | OC[C@H]1OC(O)[C@H]([18F])[C@@H](O)[C@@H]1O (stereo partly shown) [[^18F]FDG]
3 | 41.3 ± 5.5 |  |  |  |  |  |  |  |  | C[C@H](NC(=O)[C@H](CCCNC(=N)N)NC(=O)CCCCCNC(=O)c1ccc(CNC(=O)CN2CCN(CC(=O)O)CCN(CC(=O)O)CC2)cc1)C(=O)N[C@@H]1CSSC(C)(C)[C@@H](C(=O)O)NC(=O)[C@H](Cc2c[nH]cn2)NC(=O)[C@H](Cc2ccc3ccccc3c2)NC(=O)[C@H](CCCNC(=N)N)NC1=O [[^natF]AlF-NOTA-QHY-04] ({NOTA-4Amb-Ahx}-RA[dC]R[2Nal]H[Pen]-OH; disulfide 3-7)
